The values below come from patent publication EP4644377A1, “LIPID COMPOUND FOR GENE DELIVERY AND LIPID NANOPARTICLE COMPRISING SAME” (NANJING CYBERNAX BIOMEDICAL TECHNOLOGY CO., LTD., priority 2022, dated 2024).

A short description of data set [1]: Particle size detection of LNP (Brookhaven NanoBrook Omni, DLS). The format is physicochemical. Particulars: LNPs after coating mRNA (luciferase). On the procedure: Step 1. Preparation of a lipid solution and a nucleic acid solution: unless otherwise specified, all aqueous solutions involved in examples were prepared from deionized water without nucleases. An ionizable lipid, a phospholipid (disaturated phosphatidylcholine (DSPC) or dioleoylphosphatidylethanolamine (DOPE)), cholesterol and a PEG lipid (DMG-PEG2000) were mixed in a molar ratio of 50/10/38.5/1.5 (containing DSPC, formulation 1) or 36.5/16/46.5/2.5 (containing DOPE, formulation 2) and dissolved into an ethanol solution. Meanwhile, a nucleic acid (a mass ratio of ionizable lipid/nucleic acid was 10/1) was dissolved into a citrate buffer solution of pH=3, so that a final volume ratio of the ethanol solution to the citrate solution was 1/3.
Step 2. Preparation of LNP by mixing the lipid solution with the nucleic acid solution: the lipid ethanol solution and the nucleic acid aqueous solution that were prepared in Step 1 were respectively put into a sterile syringe and placed in a Precision Nanosystem Ignite instrument, the extrusion flow speeds of the ethanol solution and the water phase solution were respectively set as 3 ml/min and 9 ml/min in instrument program settings. A microfluidic chip was inserted into the instrument and LNP preparation was initiated, and then a solution mixed by the chip was collected.
Step 2.1. Preparation of an LNP solution coating nucleic acid in a porous plate: a solution of an ionizable lipid, a phospholipid (DSPC or DOPE), cholesterol and a PEG lipid (DMG-PEG2000) in ethanol was added into each well of a 96-well deep plate, so that a molar ratio of four component lipids in each well was 50/10/38.5/1.5 (containing DSPC, formulation 1) or 36.5/16/46.5/2.5 (containing DOPE, formulation 2). Then, a citrate buffer solution (pH=3, the mass of nucleic acid added into each well was 1/10 that of the ionizable lipid in this well) that was three times as ethanol in volume and dissolved with a nucleic acid molecule was quickly added into the well plate through a multi-channel pipette or an automatic liquid dispensing system and rapidly mixed, so as to obtain the LNP solution coating nucleic acid.
Step 3. Purification of the LNP solution: the LNP solution collected in Step 2 or Step 2.1 was subjected to dialysis-concentration-filtration operations, so as to obtain a final LNP solution coating nucleic acid for subsequent testing.
The LNP solution coating nucleic acid obtained in Step 3 was diluted so that the final lipid concentration was between 0.01 mg/ml and 0.1 mg/ml. The diluted solution was added into a sample reservoir, and then subjected to particle size detection in a Brookhaven NanoBrook Omni instrument.

Another data set deals with C57Bl/6 mice. As to the kind of experiment: Luciferase mRNA delivery in mice, IVIS chemiluminescence. The format is in vivo. Particulars: for Chemiluminescent signal (p/s): LNP formulation 2 (SM102: formulation 1), luciferase mRNA 0.25 mg/kg, tail vein, C57Bl/6 mice, whole body signal 6 h after LNP, 10 min after D-luciferin 150 mg/kg i.p. On the procedure: The animal experiments were reviewed and approved by the Ethics Committee of Zhejiang Medical College and the Ethics Committee of Zhejiang University of Technology. 6- to 8-week-old male C57Bl/6 mice were randomly grouped with 3 mice in each group. The mice in each group received a lipid nanoparticle coating mRNA expressing a luciferase via tail vein injection at a dose of 0.25 mg/kg mouse body weight (calculated by the mass of coated mRNA). […] The mRNA delivery effect of the lipid nanoparticle is quantitatively compared through a total chemiluminiscence quantity (Total Flux p/s) of a mouse whole body within unit time (shown in Table 5).
Table 13 and Table 14 show whole body chemiluminescent signals when LNPs (formulation 2) composed of the lipids in some examples deliver Flue mRNA in mice. The delivery dose of Flue mRNA was 0.25 mg/kg. 6 h after LNP injection, 150 mg/kg of D-luciferin was intraperitoneally injected into the mice, and then the whole body chemiluminescent signals were collected in the IVIS imaging system after 10 min. […]

`CCCCCCCC/C=C\CCCCCCCCNC(=O)C(N(CCCN(C)C)C(=O)CCCCCCC/C=C\C[C@H](O)CCCCCC)C(C)(C)C` (stereo partly shown) [Lipid 16]: in data set [1], the PDI is reported as 0.26 and the “Particle size” value turned out to be 128.73 ± 1.97 nm·days. In addition, in the data set on C57Bl/6 mice, the “Chemiluminescent signal (p/s)” value was determined as 6.94E+09 p/s.
On to `CCCCCCCCCCCCCCNC(=O)C(N(CCCN(CC)CC)C(=O)CCCCCCCCCCCCC)C(C)(C)C` (stereo not shown) [Lipid 159], for which, in data set [1], the PDI was found to be 0.22 and the “Particle size” value was 136.93 ± 2.95 nm·days. Moreover, the “Chemiluminescent signal (p/s)” value with C57Bl/6 mice was 2.30E+09 p/s.
Consider `CCCCC/C=C\C/C=C\CCCCCCCC(=O)N(CCCN(CC)CC)C(C(=O)NCCCCCCCCCCCCCC)C(C)(C)C` (stereo not shown) [Lipid 160], for which, in data set [1], the PDI is on record as 0.23 and the “Particle size” value was determined as 201.12 ± 47.7 nm·days. Also, in the data set with C57Bl/6 mice, the “Chemiluminescent signal (p/s)” value is 1.07E+10 p/s.
Regarding `CC/C=C\C/C=C\C/C=C\C/C=C\C/C=C\CCCC(=O)N(CCCN(CC)CC)C(C(=O)NCCCCCCCCCCCCCC)C(C)(C)C` (stereo not shown) [Lipid 162], in data set [1], the PDI is listed as 0.27 and the “Particle size” value was 261.64 ± 5.92 nm·days. In addition, the “Chemiluminescent signal (p/s)” value in the data set on C57Bl/6 mice was determined as 6.66E+09 p/s.
In the case of `CCCCCCCCCCCC(=O)N(CCCN(C)C)C(C(=O)NCCCOC(=O)CCCCCCCC)C(C)(C)C` (stereo not shown) [Lipid 163], in data set [1], the PDI is listed as 0.17 and the “Particle size” value amounted to 200.94 ± 5.63 nm·days. Also, in the data set on C57Bl/6 mice, the “Chemiluminescent signal (p/s)” value is 1.73E+09 p/s.
Regarding `CCCCC/C=C\C/C=C\CCCCCCCC(=O)N(CCCN(C)C)C(C(=O)NCCCCCCCC(=O)OC(CCCCCCCC)CCCCCCCC)C(C)(C)C` (stereo not shown) [Lipid 175], in data set [1], the PDI amounted to 0.18 and the “Particle size” value amounted to 178.88 ± 3.61 nm·days. Further, the “Chemiluminescent signal (p/s)” value in the data set on C57Bl/6 mice is 7.07E+09 p/s. Moreover, in the data set with C57Bl/6 mice (result in words), the “delivery efficiency in mRNA mouse in vivo delivery” value is given as “high delivery efficiency”.
Regarding `CCCCCCCCC(CCCCCCCC)OC(=O)CCCCCCCNC(=O)C(N(CCCN(CC)CC)C(=O)CCCCCCC/C=C\C[C@H](O)CCCCCC)C(C)(C)C` (stereo partly shown) [Lipid 181], in the data set with C57Bl/6 mice, the “Chemiluminescent signal (p/s)” value was determined as 3.86E+09 p/s.
Turning to `CCCCCCCCCCCCNC(=O)C(N(CCCN(C)CCO)C(=O)CCCCCCCCCCC)C(C)(C)C` (stereo not shown) [Lipid 188], in the data set on C57Bl/6 mice, the “Chemiluminescent signal (p/s)” value amounted to 1.92E+10 p/s.
Regarding `CCCCCCCCCCCCCC(=O)N(CCCN(C)CCO)C(C(=O)NCCCCCCCCCCCC)C(C)(C)C` (stereo not shown) [Lipid 189], in data set [1], the PDI is 0.19 and the “Particle size” value was 188.99 ± 4.55 nm·days. Also, the “Chemiluminescent signal (p/s)” value with C57Bl/6 mice is listed as 3.32E+08 p/s.
For the compound `CCCCCCCCCCCCCCNC(=O)C(N(CCN(C)CCO)C(=O)CCCCCCCCCCCCC)C(C)(C)C` (stereo not shown) [Lipid 194], the “Chemiluminescent signal (p/s)” value in the data set with C57Bl/6 mice is reported as 3.84E+09 p/s.
Take `CCCCC/C=C\C/C=C\CCCCCCCC(=O)N(CCN(C)CCO)C(C(=O)NCCCCCCCCCCCCCC)C(C)(C)C` (stereo not shown) [Lipid 195]: in data set [1], the PDI was 0.19 and the “Particle size” value was determined as 204.79 ± 3.09 nm·days. For the same compound, in the data set with C57Bl/6 mice, the “Chemiluminescent signal (p/s)” value worked out at 1.43E+09 p/s.
Take `CCCCCCCC/C=C\CCCCCCCCOC(=O)CCC(=O)N(CCCN(C)C)C(C(=O)NCCCC(=O)OCCCCCCCC)C(C)(C)C` (stereo not shown) [Lipid 223]: in data set [1], the PDI is given as 0.19 and the “Particle size” value was found to be 190.71 ± 1.15 nm·days. Also, the “Chemiluminescent signal (p/s)” value with C57Bl/6 mice turned out to be 1.26E+10 p/s.
As to `CCCCCCCC/C=C\CCCCCCCCOC(=O)CCC(=O)N(CCCN(CC)CC)C(C(=O)NCCCC(=O)OCCCCCCCC)C(C)(C)C` (stereo not shown) [Lipid 226], in data set [1], the PDI came out at 0.19 and the “Particle size” value worked out at 207.34 ± 2.23 nm·days. Further, the “Chemiluminescent signal (p/s)” value with C57Bl/6 mice was 9.30E+09 p/s.
In the case of `CCCCCCCCCCCC(=O)N(CCCN(C)C)C(C(=O)NCCCCCCCC(=O)OC(CCCCCCCC)CCCCCCCC)C(C)(C)C` (stereo not shown) [Lipid 234], in data set [1], the PDI came to 0.17 and the “Particle size” value was 240.23 ± 1.39 nm·days. In the data set on C57Bl/6 mice, the “Chemiluminescent signal (p/s)” value turned out to be 1.16E+10 p/s.
